The values below come from patent publication US20060069132A1, “Azolecarboxamide herbicides” (priority 2004, published 2006).

For one test, the system named is velvetleaf. The test is described as follows: Test A pre-/postemergence herbicide test. Format: in vivo, Abutilon theophrasti. The procedure, abridged: (§1)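 Visual injury scores on a 0–100 scale (100 = complete control) taken about ten days post-treatment in greenhouse against untreated controls; dash means no result. Treatments: preemergence soil spray and postemergence spray to runoff on one- to two-leaf plants 2 to 10 cm tall, surfactant-containing formulation.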

Test [1] relates to smallflower umbrella sedge. The test is described as follows: Test C flooded paddy test. Format: in vivo, Cyperus difformis.
The test system of the next test is rice. The test is described as follows: Test C flooded paddy test. Format: in vivo, Oryza sativa. The procedure, abridged: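 Postemergence sprays applied to plants 2 to 18 cm tall (1- to 4-leaf stage); paddy species grown to 2-leaf stage under flooding. After 12 to 14 days in greenhouse, visual rating versus untreated controls on 0–100 scale (0 no effect, 100 complete control).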

The test system of the next test is morningglory. The test is described as follows: Test A pre-/postemergence herbicide test. Format: in vivo, Ipomoea spp. An outline of the steps: as §1
In the next test the test system is barnyardgrass. The test is described as follows: Test A pre-/postemergence herbicide test. Format: in vivo, Echinochloa crus-galli. An outline of the steps:
as §1

The subject of another test is ducksalad. Kind of test: Test C flooded paddy test. Format: in vivo, Heteranthera limosa.
[2] abbreviates: Postemergence, 2000 g ai/ha, 0 to 100 scale, 0 no effect, 100 complete control.
Setting [3] is: Preemergence, 500 g ai/ha, visual rating, 0 to 100 scale (0 no effect, 100 complete control).
The mark [4] stands for this setting: Preemergence, 2000 g ai/ha, visual rating, 0 to 100 scale (0 no effect, 100 complete control).
Setting [5] is: 62 g ai/ha, scale 0 to 100 (0 no effect, 100 complete control).
[6] abbreviates: 125 g ai/ha, scale of 0 to 100, 0 is no effect, 100 is complete control.
[7] abbreviates: 250 g ai/ha, scale of 0 to 100, 0 is no effect, 100 is complete control.
The mark [8] stands for this setting: 500 g ai/ha, visual rating after 12 to 14 days, scale 0 to 100 (0 no effect, 100 complete control).
The mark [9] stands for this setting: Postemergence, 500 g ai/ha, 0 to 100 scale, 0 no effect, 100 complete control.
Where [10] appears, read: Preemergence, 2000 g ai/ha, 0 to 100 scale, 0 no effect, 100 complete control.
Where [11] appears, read: preemergence, 500 g ai/ha, visual injury, 0 to 100 scale (0 no effect, 100 complete control).
[12] abbreviates: 125 g ai/ha, scale 0 to 100 (0 no effect, 100 complete control).

The structures appear in SMILES notation.

As to `CCOC(=O)c1cccc(NC(=O)c2cc(C(C)(C)C)nn2CCF)c1` [Compound 79], the “Plant response rating, Velvetleaf” value with velvetleaf (setting [2]) was 50. The entries for the “Velvetleaf plant response rating” value in the test on velvetleaf (setting [3]) and in the test with velvetleaf (setting [4]) were 20 and 70, respectively. The “Sedge, Umbrella plant response rating” value in test [1] (setting [5]) is on record as 75; in test [1] (setting [6]), 75; in test [1] (setting [7]) it was 80. Also, the “Plant response rating, Sedge, Umbrella” value in test [1] (setting [8]) was found to be 85. Further, the “Rice plant response rating” value with rice (setting [5]), in the test with rice (setting [6]) and with rice (setting [7]) was 20 throughout. In the test with rice (setting [8]), the “Plant response rating, Rice” value came out at 30. Further, the results for the “Plant response rating, Morningglory” value with morningglory (setting [9]) and in the test on morningglory (setting [2]) were 15 and 25, respectively. Also, the figures for the “Morningglory plant response rating” value with morningglory (setting [3]) and in the test with morningglory (setting [10]) were 20 and 60, respectively. Further, the “Plant response rating, Barnyardgrass” value with barnyardgrass (setting [9]) and in the test with barnyardgrass (setting [2]) was 40 in each case. For the same compound, the “Barnyardgrass plant response rating” value in the test on barnyardgrass (setting [3]) amounted to 20; in the test with barnyardgrass (setting [10]), 35. For the same compound, the results for the “Ducksalad plant response rating” value with ducksalad (setting [5]), with ducksalad (setting [6]) and in the test with ducksalad (setting [7]) were 0, 0 and 15, respectively. The “Plant response rating, Ducksalad” value in the test on ducksalad (setting [8]) is reported as 55.
In the case of `CCn1nc(C(C)(C)C)cc1C(=O)Nc1cccc(OC(C)C)c1` [Compound 273], the entries for the “Velvetleaf plant response rating” value in the test with velvetleaf (setting [9]), in the test with velvetleaf (setting [4]) and in the test with velvetleaf (setting [11]) were 90, 75 and 60, respectively. For the same compound, the “Plant response rating, Velvetleaf” value in the test on velvetleaf (setting [2]) is 95. In addition, the “Sedge, Umbrella plant response rating” value in test [1] (62 g ai/ha, scale 0 to 100) was 70; in test [1] (setting [12]), 75; in test [1] (setting [7]) it was 75. Besides, the “Plant response rating, Sedge, Umbrella” value in test [1] (setting [8]) is listed as 75. Also, the “Rice plant response rating” value is 10 in the test on rice (62 g ai/ha, scale 0 to 100); 40 in the test on rice (setting [12]); 50 in the test on rice (setting [7]). Moreover, the “Plant response rating, Rice” value in the test with rice (setting [8]) is given as 60. In addition, the results for the “Morningglory plant response rating” value in the test on morningglory (setting [9]), in the test with morningglory (setting [4]) and in the test on morningglory (setting [11]) were 70, 80 and 45, respectively. Besides, the “Plant response rating, Morningglory” value in the test with morningglory (setting [2]) is given as 75. For the same compound, the “Barnyardgrass plant response rating” value in the test with barnyardgrass (setting [9]) is 55; with barnyardgrass (setting [4]) it was 95; in the test on barnyardgrass (setting [11]), 70. Besides, the “Plant response rating, Barnyardgrass” value with barnyardgrass (setting [2]) came to 75. In addition, the “Ducksalad plant response rating” value in the test with ducksalad (62 g ai/ha, scale 0 to 100) was found to be 20; with ducksalad (setting [12]), 50; in the test with ducksalad (setting [7]), 75. The “Plant response rating, Ducksalad” value with ducksalad (setting [8]) turned out to be 75.
Turning to `CCn1nc(C(C)(C)C)cc1C(=O)Nc1cccc(C(=O)N2CC=CC2)c1` [Compound 286], the “Velvetleaf plant response rating” value in the test with velvetleaf (setting [9]) stood at 30; in the test with velvetleaf (setting [4]) it was 70; in the test on velvetleaf (setting [11]) it was 20. In the test on velvetleaf (setting [2]), the “Plant response rating, Velvetleaf” value amounted to 50. Also, the “Sedge, Umbrella plant response rating” value in test [1] (62 g ai/ha, scale 0 to 100) was 30; in test [1] (setting [12]) it was 70; in test [1] (setting [7]), 90. Besides, the “Plant response rating, Sedge, Umbrella” value in test [1] (setting [8]) stood at 90. The “Rice plant response rating” value in the test with rice (62 g ai/ha, scale 0 to 100) amounted to 45; in the test on rice (setting [12]) it was 55; in the test on rice (setting [7]), 65. Moreover, the “Plant response rating, Rice” value with rice (setting [8]) is given as 75. Further, the “Morningglory plant response rating” value with morningglory (setting [9]) came to 20; in the test on morningglory (setting [4]) it was 40; in the test on morningglory (setting [11]), 30. The “Plant response rating, Morningglory” value in the test on morningglory (setting [2]) is reported as 35. The figures for the “Barnyardgrass plant response rating” value in the test on barnyardgrass (setting [9]), in the test on barnyardgrass (setting [4]) and in the test with barnyardgrass (setting [11]) were 60, 85 and 75, respectively. Moreover, the “Plant response rating, Barnyardgrass” value in the test on barnyardgrass (setting [2]) was determined as 80. Moreover, the “Ducksalad plant response rating” value with ducksalad (62 g ai/ha, scale 0 to 100) is 50; in the test on ducksalad (setting [12]), 75; in the test on ducksalad (setting [7]), 90. Also, the “Plant response rating, Ducksalad” value with ducksalad (setting [8]) is reported as 90.
As for `CCn1nc(C(C)(C)C)cc1C(=O)Nc1cccc(C(=O)NOC)c1` [Compound 67], the “Plant response rating, Velvetleaf” value with velvetleaf (setting [2]) is on record as 15. The “Velvetleaf plant response rating” value in the test with velvetleaf (setting [3]) is given as 30; in the test with velvetleaf (setting [4]), 75. Moreover, the figures for the “Sedge, Umbrella plant response rating” value in test [1] (setting [5]), in test [1] (setting [6]) and in test [1] (setting [7]) were 50, 50 and 75, respectively. The “Plant response rating, Sedge, Umbrella” value in test [1] (setting [8]) worked out at 75. Moreover, the “Rice plant response rating” value in the test with rice (setting [5]), in the test on rice (setting [6]) and with rice (setting [7]) was 0 each time. The “Plant response rating, Rice” value with rice (setting [8]) was found to be 30. The “Plant response rating, Morningglory” value in the test on morningglory (setting [9]) is given as 5; in the test with morningglory (setting [2]), 20. The “Morningglory plant response rating” value with morningglory (setting [3]) was determined as 0; in the test on morningglory (setting [10]), 30. The “Plant response rating, Barnyardgrass” value in the test on barnyardgrass (setting [9]) turned out to be 0; in the test with barnyardgrass (setting [2]), 25. The “Barnyardgrass plant response rating” value in the test with barnyardgrass (setting [3]) is 0; in the test on barnyardgrass (setting [10]) it was 30. Moreover, the “Ducksalad plant response rating” value with ducksalad (setting [5]) amounted to 30; in the test on ducksalad (setting [6]), 30; with ducksalad (setting [7]), 40. Also, the “Plant response rating, Ducksalad” value with ducksalad (setting [8]) is reported as 40.
On to `CCc1nn(C(C)C)nc1C(=O)Nc1cccc(C(=O)N(C)C)c1` [Compound 358, N-[3-[(dimethylamino)carbonyl)phenyl]-5-ethyl-2-(1-methylethyl)-2H-1,2,3-triazole-4-carboxamide], for which the pest or weed control at 62 g/ha stood at 15% in test [1] (Cyperus difformis, 62 g ai/ha, scale 0 to 100, read-out: Sedge, Umbrella plant response rating) and 0% with ducksalad (Heteranthera limosa, 62 g ai/ha, scale 0 to 100, read-out: Ducksalad plant response rating). Further, the pest or weed control at 125 g/ha in test [1] (Cyperus difformis, 125 g ai/ha, scale 0 to 100 (0 no effect, 100 complete control), read-out: Sedge, Umbrella plant response rating) stood at 85%; in the test on ducksalad (Heteranthera limosa, 125 g ai/ha, scale 0 to 100 (0 no effect, 100 complete control), read-out: Ducksalad plant response rating) it was 80%. Also, the pest or weed control at 250 g/ha in test [1] (Cyperus difformis, 250 g ai/ha, scale of 0 to 100, 0 is no effect, 100 is complete control, read-out: Sedge, Umbrella plant response rating) amounted to 85%; in the test on ducksalad (Heteranthera limosa, 250 g ai/ha, scale of 0 to 100, 0 is no effect, 100 is complete control, read-out: Ducksalad plant response rating), 90%. Also, the pest or weed control at 500 g/ha in test [1] (Cyperus difformis, 500 g ai/ha, visual rating after 12 to 14 days, scale 0 to 100 (0 no effect, 100 complete control), read-out: Plant response rating, Sedge, Umbrella) stood at 85%; with ducksalad (Heteranthera limosa, 500 g ai/ha, visual rating after 12 to 14 days, scale 0 to 100 (0 no effect, 100 complete control), read-out: Plant response rating, Ducksalad), 95%. Further, in the test with rice (Oryza sativa, 62 g ai/ha, scale 0 to 100, read-out: Rice plant response rating), the plant injury at 62 g/ha was found to be 20%. The plant injury at 125 g/ha with rice (Oryza sativa, 125 g ai/ha, scale 0 to 100 (0 no effect, 100 complete control), read-out: Rice plant response rating) is 65%. The plant injury at 250 g/ha in the test on rice (Oryza sativa, 250 g ai/ha, scale of 0 to 100, 0 is no effect, 100 is complete control, read-out: Rice plant response rating) is 70%. Besides, in the test with rice (Oryza sativa, 500 g ai/ha, visual rating after 12 to 14 days, scale 0 to 100 (0 no effect, 100 complete control), read-out: Plant response rating, Rice), the plant injury at 500 g/ha worked out at 85%.
For `CCOC(=O)c1ccc(F)c(NC(=O)c2cc(C3(C)CC3)nn2CC)c1` [Compound 296], the “Sedge, Umbrella plant response rating” value amounted to 75 in test [1] (62 g ai/ha, scale 0 to 100); 75 in test [1] (setting [12]); 75 in test [1] (setting [7]). Also, in test [1] (setting [8]), the “Plant response rating, Sedge, Umbrella” value amounted to 85. Further, the “Rice plant response rating” value came out at 20 in the test on rice (62 g ai/ha, scale 0 to 100); 20 with rice (setting [12]); 40 with rice (setting [7]). Besides, the “Plant response rating, Rice” value in the test with rice (setting [8]) is given as 60. Besides, the “Ducksalad plant response rating” value worked out at 0 in the test on ducksalad (62 g ai/ha, scale 0 to 100); 0 with ducksalad (setting [12]); 40 in the test on ducksalad (setting [7]). Besides, the “Plant response rating, Ducksalad” value in the test on ducksalad (setting [8]) amounted to 70.
